Measured values published in ChEMBL document CHEMBL1201862, “PubChem BioAssay data set” (2004).
Calls of active or inactive are those of the source.

What was measured:
[1] = NIH-3T3 fibroblast cytotoxicity, dose response, cytotoxicity control, cell-based, fluorescence, Alamar Blue, secondary assay (AID 2327); format: functional;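 further: NIH-3T3 mouse fibroblasts cultured with fluconazole at 8 µg/mL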
[2] = inhibitors of firefly luciferase expression or activity, dose response, H4 neuroglioma cells, luminescence (AID 1990); format: functional, cell-based
HEK293 [3] = experiment: NOD1 signaling inhibitors, primary screen, cell-based, luminescence, uHTS (AID 1578); format: functional; details: Homo sapiens
BJ [4] = experiment: cytotoxicity toward BJ-TERT fibroblasts, dose response, cell-based, RAS-independent, luminescence (AID 1933); format: functional; details: Homo sapiens
Protein Rev = Protein Rev (Human immunodeficiency virus type 1 group M subtype B (isolate WMJ22)(HIV-1), UniProt P05866); experiment: HIV-1 Rev-RRE RNA binding disruptors, dose response, biochemical, protein-RNA interaction (AID 842); set-up: species or system Human immunodeficiency virus 1
Sequence of Protein Rev (P05866 whole entry): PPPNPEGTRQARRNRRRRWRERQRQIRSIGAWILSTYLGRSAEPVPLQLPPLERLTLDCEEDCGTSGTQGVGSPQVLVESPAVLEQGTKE

HEK293 [5] = experiment: cells; format: functional, cell-based; details: Homo sapiens
[6] = Luminescence Cell-Based Dose Response HTS to Identify Inhibitors of 5'UTR Stem-Loop Driven Prion Protein mRNA Translation in H4 Neuroglioblastoma Cells. [Related pubchem assays: 1827 (Project Summary), 1813 (Primary HTS)]; format: functional
[7] = inhibitors of SNCA 5'UTR-driven reporter translation, confirmation, H4 neuroglioma cells, luminescence (AID 1988); format: functional, cell-based
BJ [8] = experiment: cells; format: functional, cell-based; details: Homo sapiens
[9] = C. albicans growth with fluconazole, confirmation, fluorescence, retest (AID 2467); format: functional, cell-based
HEK293 [10] = experiment: cells; format: functional, cell-based; details: Homo sapiens; remark: listed apart in the source
[11] = molecular target: Nucleotide-binding oligomerization domain-containing protein 2 (Homo sapiens, UniProt Q9HC29); experiment: NOD2 signaling inhibitors, cell-based, luminescence, uHTS, HEK293 (AID 1566); format: functional
HEK293 [12] = experiment: NOD2 signaling inhibitors in MDP-stimulated cells, cell-based, uHTS, luminescence (AID 2001); format: functional; details: Homo sapiens
HEK293 [13] = experiment: cells; format: functional, cell-based; details: Homo sapiens; remark: listed apart in the source
[14] = growth suppression of PTEN-null colon cells, dose response, cell-based, HCT116 PTEN knockout (AID 1047); format: functional;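 further: HCT116 colon tumor cells with PTEN knocked out; cells exposed to compound for 60 hours before readout; potency for loss of cell viability measured by luminescence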
[15] = molecular target: T1, Serine/threonine-protein phosphatase (Candida dubliniensis (strain CD36 / CBS 7987 / NCPF 3949 / NRRLY-17841) (Yeast), UniProt B9W6M3); experiment: calcineurin pathway inhibitors in yeast reporter, dose response, S. cerevisiae, CDRE-lacZ, luminescence, secondary (AID 2388); format: functional, cell-based;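 further: yeast reporter cells carrying a calcineurin-responsive lacZ construct stimulated with calcium chloride; luminescent beta-galactosidase reporter signal in whole cells rather than isolated phosphatase activity; potency for inhibition where a drop in reporter signal means calcineurin blockade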
T1 sequence (B9W6M3 whole entry): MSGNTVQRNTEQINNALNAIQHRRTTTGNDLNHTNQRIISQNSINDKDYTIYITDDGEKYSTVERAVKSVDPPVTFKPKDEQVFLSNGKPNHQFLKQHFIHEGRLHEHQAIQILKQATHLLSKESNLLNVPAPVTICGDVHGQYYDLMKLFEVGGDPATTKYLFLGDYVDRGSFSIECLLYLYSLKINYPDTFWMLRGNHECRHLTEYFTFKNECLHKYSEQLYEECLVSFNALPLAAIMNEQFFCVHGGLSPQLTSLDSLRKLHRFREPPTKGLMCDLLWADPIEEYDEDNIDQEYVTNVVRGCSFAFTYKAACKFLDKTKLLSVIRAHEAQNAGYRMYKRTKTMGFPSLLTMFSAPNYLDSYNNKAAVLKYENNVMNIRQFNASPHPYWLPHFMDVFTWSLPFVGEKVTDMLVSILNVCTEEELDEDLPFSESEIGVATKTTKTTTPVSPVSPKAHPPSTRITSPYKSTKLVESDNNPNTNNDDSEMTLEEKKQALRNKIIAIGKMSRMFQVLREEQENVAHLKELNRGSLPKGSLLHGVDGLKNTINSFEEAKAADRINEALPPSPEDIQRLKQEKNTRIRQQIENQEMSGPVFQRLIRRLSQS

[16] = growth suppression of beta-catenin-knockout colon cells, dose response, cell-based, HCT116, human colon tumor (AID 1045); format: functional;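 further: HCT116 colon tumor cells with beta catenin knocked out; cells exposed to compound for 60 hours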
BJ [17] = experiment: cytotoxicity toward BJ-TERT-LT-ST fibroblasts, dose response, cell-based, RAS-independent, luminescence (AID 1935); format: functional; details: Homo sapiens;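 further: BJ fibroblasts immortalized with TERT plus LT and ST oncogenes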
[18] = cytotoxicity toward DRD oncogenic fibroblasts, dose response, cell-based, non-viral oncogenic, luminescence (AID 1934); format: functional; details: Homo sapiens
[19] = THP-1 cell cytotoxicity, dose response, cytotoxicity control for non-replicating M. tuberculosis project (AID 489025); format: functional
[20] = HepG2 cell cytotoxicity, dose response, cytotoxicity control for non-replicating M. tuberculosis project (AID 489018); format: functional; details: Mycobacterium tuberculosis
Jurkat = experiment: antigen receptor-induced NF-kB inhibitors, dose response, Jurkat, luciferase reporter, luminescence, B- and T-cell (AID 489004); format: functional, cell-based; details: Homo sapiens;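 further: NF-kB luciferase reporter Jurkat cells stimulated with PMA plus ionomycin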
[21] = Vero E6 cell cytotoxicity, dose response, cytotoxicity control for non-replicating M. tuberculosis project, secondary assay (AID 492998); format: functional, VeroE6; details: Vero C1008
[22] = cytotoxicity in HEK-293T NF-kB-Luc cells, dose response, cytotoxicity control for B/T-cell NF-kB inhibitor project, cell-based, uHTS hits (AID 489019); format: functional;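 further: IC50 reflects cytotoxicity as loss of cell viability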
cells = format: functional
BJ [23] = experiment: cytotoxicity toward Ras-transformed BJeLR fibroblasts, dose response, cell-based, alamar blue fluorescence, cherrypicked samples (AID 2631); format: functional; details: Homo sapiens;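 further: confirmatory dose-response assay in RAS-dependent BJ fibroblasts engineered with TERT, LT and ST, with cytotoxicity read by fluorescence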
INS1 = experiment: beta cell apoptosis inhibitors, cytokine rescue, dose response, luminescence, retest (AID 449756); format: functional, cell-based; details: Rattus norvegicus;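 further: cell death triggered by IL-1 beta plus TNF-alpha plus IFN-gamma mixture; protective hits raise ATP signal compared with cytokine alone wells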
[24] = molecular target: ATP-dependent molecular chaperone HSP82 (Candida albicans (strain WO-1) (Yeast), UniProt C4YTQ8); experiment: loss of DOC-induced GRE-beta-galactosidase reporter signal, dose response, Hsp90 inhibitor project, S. cerevisiae, luminescence (AID 2400); format: functional, cell-based;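 further: beta-galactosidase luminescence from glucocorticoid response element reporter as proxy for Hsp90 function; inhibitor potency where signal loss means Hsp90 inhibition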
Sequence of ATP-dependent molecular chaperone HSP82 (C4YTQ8 whole entry, the tested form may be a part): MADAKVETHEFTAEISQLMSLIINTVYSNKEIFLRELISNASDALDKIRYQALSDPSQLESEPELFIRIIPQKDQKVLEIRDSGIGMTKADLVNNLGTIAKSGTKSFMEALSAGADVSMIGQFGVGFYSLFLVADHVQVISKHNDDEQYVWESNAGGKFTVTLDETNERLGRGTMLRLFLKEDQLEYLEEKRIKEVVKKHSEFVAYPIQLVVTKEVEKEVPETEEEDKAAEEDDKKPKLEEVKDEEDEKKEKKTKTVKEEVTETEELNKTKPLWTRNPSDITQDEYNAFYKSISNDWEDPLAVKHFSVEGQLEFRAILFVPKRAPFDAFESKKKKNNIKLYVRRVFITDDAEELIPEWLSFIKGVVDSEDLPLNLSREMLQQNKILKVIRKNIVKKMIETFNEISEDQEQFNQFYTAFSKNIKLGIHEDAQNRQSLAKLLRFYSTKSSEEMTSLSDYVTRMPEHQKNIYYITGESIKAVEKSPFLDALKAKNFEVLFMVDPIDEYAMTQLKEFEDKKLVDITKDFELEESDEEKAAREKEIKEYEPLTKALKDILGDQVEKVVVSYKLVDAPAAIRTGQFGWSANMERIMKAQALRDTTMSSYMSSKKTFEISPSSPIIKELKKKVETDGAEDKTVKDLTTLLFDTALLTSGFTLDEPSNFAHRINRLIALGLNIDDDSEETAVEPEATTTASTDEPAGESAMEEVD

[25] = inhibitors of HIV Env-driven cell fusion, dose response, cherry-pick (AID 652057); format: functional, cell-based
[26] = CEM21 lymphoblast cell cytotoxicity, dose response, cytotoxicity control for viral fusion inhibitor project, CellTiter-Glo luminescence, cherry-picked (AID 652042); format: functional, cell-based;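 further: potency for signal decrease meaning cytotoxicity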
[27] = ZM109 Env clade C HIV-1 fusion inhibitors, dose response, HeLa effector, CEM target cells, luciferase, cherry-pick (AID 652058); format: functional, cell-based
[28] = inhibitors of clade B AD8 Env fusion, dose response, cell-based, cherry-pick (AID 652062); format: functional;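 further: luciferase signal from cell-cell fusion driven by HIV-1 clade B AD8 Env; potency is for inhibitors of fusion seen as a drop in luminescence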
[29] = molecular target: Lysine-specific demethylase 4C (Homo sapiens, UniProt Q9H3R0); experiment: GASC-1 (JMJD2C) histone demethylase inhibitors, dose response, biochemical, DELFIA europium, cherry-picked samples (AID 488835); format: functional
[30] = molecular target: Peroxisome proliferator-activated receptor gamma/Nuclear receptor coactivator 1 (Homo sapiens, UniProt P37231); experiment: (§1) TR-FRET dose response biochemical High Throughput Screening assay for agonists of the steroid receptor coactivator 1 (SRC-1) recruitment by the peroxisome proliferator-activated receptor gamma (PPAR gamma): non-selective agonists. [Related pubchem assays (depositor defined):AID1300, AID1808, AID504735, AID631]; format: protein assay
[31] = molecular target: Peroxisome proliferator-activated receptor gamma/Nuclear receptor coactivator 3 (Homo sapiens, UniProt P37231); experiment: as §1, with “3 (SRC-3)” for “1 (SRC-1)”, “assays: 1301 (Confirmation screen.), 1048 (Primary screen.)]” for “assays (depositor defined):AID1300, AID1808, AID504735, AID631]”; format: functional
Sequence of Peroxisome proliferator-activated receptor gamma/Nuclear receptor coactivator 3 (P37231 whole entry): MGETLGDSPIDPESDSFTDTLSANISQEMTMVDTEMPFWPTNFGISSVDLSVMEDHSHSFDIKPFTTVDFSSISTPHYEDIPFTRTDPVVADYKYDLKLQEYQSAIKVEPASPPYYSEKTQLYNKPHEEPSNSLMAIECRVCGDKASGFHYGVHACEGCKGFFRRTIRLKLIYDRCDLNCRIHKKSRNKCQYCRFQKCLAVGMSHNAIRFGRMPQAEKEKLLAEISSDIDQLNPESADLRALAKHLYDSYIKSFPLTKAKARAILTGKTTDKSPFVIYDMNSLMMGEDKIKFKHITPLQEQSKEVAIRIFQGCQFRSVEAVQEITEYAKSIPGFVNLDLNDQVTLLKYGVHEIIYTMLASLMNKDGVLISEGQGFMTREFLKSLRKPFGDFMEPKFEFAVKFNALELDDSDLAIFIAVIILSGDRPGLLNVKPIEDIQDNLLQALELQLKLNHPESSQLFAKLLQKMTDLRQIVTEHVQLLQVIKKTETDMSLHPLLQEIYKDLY
Sequence of Peroxisome proliferator-activated receptor gamma/Nuclear receptor coactivator 3 (Q9Y6Q9 whole entry, further chain): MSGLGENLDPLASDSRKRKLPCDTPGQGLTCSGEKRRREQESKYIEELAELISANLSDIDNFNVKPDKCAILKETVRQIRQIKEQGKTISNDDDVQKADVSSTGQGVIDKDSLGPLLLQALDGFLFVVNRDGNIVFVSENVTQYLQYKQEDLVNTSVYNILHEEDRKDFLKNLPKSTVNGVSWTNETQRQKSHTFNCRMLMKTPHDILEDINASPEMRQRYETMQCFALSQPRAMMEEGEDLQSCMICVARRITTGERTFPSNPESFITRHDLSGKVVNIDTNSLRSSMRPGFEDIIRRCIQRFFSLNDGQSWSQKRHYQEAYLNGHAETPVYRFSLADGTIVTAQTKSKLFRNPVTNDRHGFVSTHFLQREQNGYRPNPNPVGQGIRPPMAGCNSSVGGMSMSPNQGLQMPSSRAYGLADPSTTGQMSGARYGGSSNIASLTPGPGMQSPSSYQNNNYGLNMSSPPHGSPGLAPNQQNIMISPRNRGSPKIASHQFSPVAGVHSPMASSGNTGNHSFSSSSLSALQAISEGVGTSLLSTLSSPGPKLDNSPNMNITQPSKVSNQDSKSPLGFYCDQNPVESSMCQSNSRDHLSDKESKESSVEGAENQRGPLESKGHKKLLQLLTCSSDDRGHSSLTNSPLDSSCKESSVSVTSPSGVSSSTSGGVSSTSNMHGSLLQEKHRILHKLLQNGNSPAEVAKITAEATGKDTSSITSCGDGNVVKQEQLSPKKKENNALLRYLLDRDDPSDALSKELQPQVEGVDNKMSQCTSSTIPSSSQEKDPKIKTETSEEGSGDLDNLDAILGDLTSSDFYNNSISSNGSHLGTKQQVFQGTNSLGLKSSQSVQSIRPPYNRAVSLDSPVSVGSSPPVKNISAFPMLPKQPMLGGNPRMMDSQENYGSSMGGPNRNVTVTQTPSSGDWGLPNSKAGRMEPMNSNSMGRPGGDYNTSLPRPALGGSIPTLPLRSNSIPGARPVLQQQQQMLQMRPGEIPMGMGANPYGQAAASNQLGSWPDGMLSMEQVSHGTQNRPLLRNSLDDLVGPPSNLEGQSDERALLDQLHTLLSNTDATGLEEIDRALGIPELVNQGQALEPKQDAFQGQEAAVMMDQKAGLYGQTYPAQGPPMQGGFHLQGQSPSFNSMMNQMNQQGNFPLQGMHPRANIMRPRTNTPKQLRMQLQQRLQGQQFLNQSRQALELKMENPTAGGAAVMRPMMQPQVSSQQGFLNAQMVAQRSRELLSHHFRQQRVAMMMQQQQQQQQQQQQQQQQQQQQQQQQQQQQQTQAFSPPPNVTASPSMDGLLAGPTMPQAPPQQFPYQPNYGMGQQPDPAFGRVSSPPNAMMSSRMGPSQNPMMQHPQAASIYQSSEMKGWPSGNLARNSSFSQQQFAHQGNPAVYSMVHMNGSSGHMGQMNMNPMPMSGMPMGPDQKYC

[32] = molecular target: Peroxisome proliferator-activated receptor gamma/Nuclear receptor coactivator 2 (Homo sapiens, UniProt P37231); experiment: TR-FRET dose response biochemical High Throughput Screening assay for agonists of the steroid receptor coactivator 2 (SRC-2) recruitment by the peroxisome proliferator-activated receptor gamma (PPAR gamma): non-selective agonists. [Related pubchem assays: 1297, 1032 ]; format: functional
Sequence of Peroxisome proliferator-activated receptor gamma/Nuclear receptor coactivator 2 (P37231 whole entry): as the sequence (P37231 whole entry) above
Sequence of Peroxisome proliferator-activated receptor gamma/Nuclear receptor coactivator 2 (Q15596 whole entry, further chain): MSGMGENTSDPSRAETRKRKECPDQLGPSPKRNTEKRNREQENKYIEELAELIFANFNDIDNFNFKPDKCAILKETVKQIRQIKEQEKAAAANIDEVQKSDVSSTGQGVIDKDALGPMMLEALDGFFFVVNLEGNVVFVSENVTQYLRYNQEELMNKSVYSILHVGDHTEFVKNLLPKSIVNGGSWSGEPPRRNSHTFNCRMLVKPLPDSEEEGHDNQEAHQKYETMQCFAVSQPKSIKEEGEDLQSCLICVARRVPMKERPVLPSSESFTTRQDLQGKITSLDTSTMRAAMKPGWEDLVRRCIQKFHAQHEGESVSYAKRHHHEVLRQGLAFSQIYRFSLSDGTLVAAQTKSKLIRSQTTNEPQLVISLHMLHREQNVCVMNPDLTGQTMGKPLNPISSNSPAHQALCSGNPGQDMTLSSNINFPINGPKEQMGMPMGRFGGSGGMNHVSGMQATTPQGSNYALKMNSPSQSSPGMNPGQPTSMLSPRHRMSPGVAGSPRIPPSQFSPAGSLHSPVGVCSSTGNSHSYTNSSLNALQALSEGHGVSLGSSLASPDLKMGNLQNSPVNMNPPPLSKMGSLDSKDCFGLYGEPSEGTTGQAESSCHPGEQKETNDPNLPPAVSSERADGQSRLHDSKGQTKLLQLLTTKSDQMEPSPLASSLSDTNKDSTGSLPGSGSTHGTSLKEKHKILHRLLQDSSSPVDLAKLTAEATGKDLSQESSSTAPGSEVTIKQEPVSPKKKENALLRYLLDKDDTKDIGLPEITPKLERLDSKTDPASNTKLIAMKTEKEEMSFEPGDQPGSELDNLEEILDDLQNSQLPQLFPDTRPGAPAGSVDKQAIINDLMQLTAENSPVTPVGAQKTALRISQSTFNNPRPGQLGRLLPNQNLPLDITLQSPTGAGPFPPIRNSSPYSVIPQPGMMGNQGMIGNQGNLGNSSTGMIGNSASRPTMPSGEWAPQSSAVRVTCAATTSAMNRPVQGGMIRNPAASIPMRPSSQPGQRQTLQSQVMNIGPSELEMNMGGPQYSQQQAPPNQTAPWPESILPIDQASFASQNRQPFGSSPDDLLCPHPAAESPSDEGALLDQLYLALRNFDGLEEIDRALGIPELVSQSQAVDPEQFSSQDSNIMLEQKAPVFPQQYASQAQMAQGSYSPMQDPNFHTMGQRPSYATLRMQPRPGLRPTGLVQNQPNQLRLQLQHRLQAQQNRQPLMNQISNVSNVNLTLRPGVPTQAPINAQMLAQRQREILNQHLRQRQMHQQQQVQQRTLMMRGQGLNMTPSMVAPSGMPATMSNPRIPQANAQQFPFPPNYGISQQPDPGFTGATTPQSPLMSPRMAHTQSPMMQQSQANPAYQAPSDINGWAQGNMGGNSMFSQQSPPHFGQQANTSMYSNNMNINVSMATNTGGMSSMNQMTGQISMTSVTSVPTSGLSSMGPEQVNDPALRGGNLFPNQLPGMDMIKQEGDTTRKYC

Keap1/Nrf2 = Keap1/Nrf2 (Homo sapiens, UniProt Q14145); experiment: Keap1-Nrf2 protein-protein interaction inhibitors, dose response, biochemical, fluorescence polarization, cherry-picked samples (AID 588683)

Q: What does the source list for `COc1ccc(/C=C/c2cc(-c3ccc(C)cc3)o[n+]2C)cc1`?
A: EC50 [1]: > 160 µM (inactive); EC50 [2]: 0.894 µM (active); EC50 (HEK293 [3]): 9.15 µM (active); EC50 (BJ [4]): 0.601 µM (inconclusive); IC50 (Protein Rev): > 79.4 µM (not active); IC50 (HEK293 [5]): 5.25 µM (active); EC50 [6]: 12.2 µM (active); EC50 [7]: 2.27 µM (active); EC50 (BJ [8]): 1.87 µM (inconclusive); EC50 [9]: 0.576 µM (active); IC50 (HEK293 [10]): 13.2 µM (active); EC50 [11]: 8.29 µM (active); IC50 (HEK293 [12]): 8.34 µM (active); IC50 (HEK293 [13]): > 20 µM (inactive); EC50 [14]: 0.778 µM (active); EC50 [15]: > 180 µM (inactive); EC50 [16]: 0.733 µM (active); EC50 (BJ [17]): 4.41 µM (inconclusive); EC50 [18]: 5.02 µM (active); CC50 [19]: 2.38 µM (active); CC50 [20]: 9.8 µM (active); IC50 (Jurkat): 3.13 µM (active); CC50 [21]: > 20 µM (active); IC50 [22]: > 80 µM (inactive); IC50 (cells): 5.99 µM (active); EC50 (BJ [23]): 3.43 µM (active); AC50 (INS1): 0.76 µM (active); EC50 [24]: > 160 µM (inactive); AC50 [25]: 6.83 µM (active); AC50 [26]: 4.21 µM (active); AC50 [27]: 3.33 µM (active); AC50 [28]: 7.88 µM (active)

Q: Which AC50 [29] does the source give for `Nc1cccc(C(=O)Nc2ccco2)c1` here?
A: 27.5 µM (active)

Q: For `Cc1onc(-c2ccccc2Cl)c1C(=O)Nc1nnc(-c2ccc(Cl)cc2Cl)s1`, which EC50 [30] is on record?
A: 51.2 µM (inactive)

Q: What about the EC50 [31] of the same molecule?
A: 75.5 µM (not active)

Q: And the EC50 [32]?
A: 42.8 µM (not active)

Q: For `Sc1nc(-c2ccc(Cl)cc2)cs1`, which EC50 [30] is on record?
A: 12 µM (inactive)

Q: What about the EC50 [31] of the same molecule?
A: > 79.4 µM (not active)

Q: And the EC50 [32]?
A: 21.8 µM (not active)

Q: Which AC50 (Keap1/Nrf2) does the source give for `Cc1ccc(NC(=O)/C(C#N)=C(\N)C(Cl)(Cl)Cl)nc1` here?
A: 11.9 µM (active)
